In patent US10550084B2, “Substituted 1-hydroxy-pyridin-2(1H)-ones, and methods of making and using same” (ARBUTUS BIOPHARMA CORPORATION, priority 2017, dated 2020) one finds EC50 data, which are given here for 9 molecules.

Molecules are shown by their SMILES. Some results are limits rather than exact numbers.

Type in all cases: cell-based
Experiment [1] has as its system HBV rcDNA in HepDE19 cells. In words: HepDE19 assay with bDNA quantitation of HBV rcDNA. To be noted: Hepatitis B virus, 168 h, 7 days, top concentration 25 μM, Quantigene 2.0 bDNA, read-out: bDNA_RCDNA EC50. Here is the method: (§1) (b) HepDE19 Assay with bDNA Quantitation of HBV rcDNA
(§2) HepDE19 cell culture system is a HepG2 (human hepatocarcinoma) derived cell line that supports HBV DNA replication and cccDNA formation in a tetracycline (Tet)-regulated manner and produces HBV rcDNA and a detectable reporter molecule dependent on the production and maintenance of cccDNA (Guo, et al., 2007, J. Virol. 81:12472-12484). HepDE19 (50,000 cells/well) were plated in 96 well collagen-coated tissue-culture treated microtiter plates in DMEM/F12 medium supplemented with 10% fetal bovine serum, 1% penicillin-streptomycin and 1 μg/mL tetracycline and incubated in a humidified incubator at 37° C. and 5% CO2 overnight. Next day, the cells were switched to fresh medium without tetracycline and incubated for 4 hrs at 37° C. and 5% CO2. The cells were treated with fresh Tet-free medium with compounds at concentrations starting at 25 μM and a serial, ½ log, 8-point, titration series in duplicate. The final DMSO concentration in the assay was 0.5%. The plates were incubated for 7 days in a humidified incubator at 37° C. and 5% CO2. Following a 7 day-incubation, the level of rcDNA present in the inhibitor-treated wells was measured using a Quantigene 2.0 bDNA assay kit (Affymetrix, Santa Clara, Calif.) with HBV specific custom probe set and manufacturer's instructions. In order to differentiate HBV RNaseH inhibitors from other classes of HBV inhibitors (for example, nucleos(t)ide analogs or capsid inhibitors), the assay method was configured by incorporating the quantitation of both the minus-strand and the plus-strand of HBV rcDNA levels using specifically designed HBV probe sets. This is based on the observation that inhibition of RNaseH enzyme activity results in a block of the synthesis of the plus strand synthesis by the viral polymerase that follows the synthesis of the minus-strand of rcDNA (Tavis & Lomonosova, 2015, Antiviral Res. 118:132-138). […] In contrast, treatment with HBV inhibitors such as a nucleos(t)ide analogs or capsid inhibitors reduces the production of both strands of HBV rcDNA in cells. Concurrently, the effect of compounds on cell viability was assessed using replicate plates, plated at a density of 5,000 cells/well and incubated for 4 days, to determine the ATP content as a measure of cell viability using the cell-titer glo reagent (CTG; Promega Corporation, Madison, Wis.) as per manufacturer's instructions. The plates were read using a Victor luminescence plate reader (PerkinElmer Model 1420 Multilabel counter) and the relative luminescence units (RLU) data generated from each well was calculated as % inhibition of the untreated control wells and analyzed using XL-Fit module in Microsoft Excel to determine EC50 and EC90 (bDNA) and CC50 (CTG) values using a 4-parameter curve fitting algorithm.

For experiment [2], the system named is plus-strand of HBV rcDNA in HepDE19 cells. In words: HepDE19 assay with bDNA quantitation of HBV rcDNA, plus-strand probe set. As to conditions: Hepatitis B virus, 168 h, 7 days, top concentration 25 μM, Quantigene 2.0 bDNA, plus-strand (PS) rcDNA, read-out: bDNA_RCDNA_PS EC50. Here is the method:
as §1, §2

The test system of experiment [3] is HA-tagged HBeAg (HBV) in DESHAe82 cells. In words: AlphaLisa eAg: HA-HBeAg level in DESHAe82 cell culture (anti-HBV / anti-cccDNA activity). As to conditions: Hepatitis B virus, 216 h, read-out: AlphaLisa_eAg EC50. As for the experimental part: Evaluation of anti-HBV activity of the compounds in in vitro cell culture studies was conducted using a modification of the assay system described in Cai et al., 2012, Antimicrobial Agents Chemotherapy 56(8):4277-88, and PCT/EP/2015/06838. In the DESHAe82 cell culture system, the HA epitope-tagged secreted HBV “e antigen” (HBeAg) and HBV precore RNA are produced only from the cccDNA circular template that is formed after HBV replication in absence of Tetracycline (Tet). The DESHAe82 cell line produces high levels of cccDNA synthesis and HA-HBeAg, and high specific readout signals with low noise.
Two assay systems, a chemiluminescence ELISA (CLIA) and a proximity […] assay (AlphaLISA) were developed and used for high-sensitivity detection of HA-tagged HBeAg. To test the compound, DESHAe82 were plated in 96 well tissue-culture treated microtiter plates in DMEM/F12 medium supplemented with 10% fetal bovine serum+1% penicillin-streptomycin with Tet, and incubated in a humidified incubator at 37° C. and 5% CO2 overnight. Next day, the cells were switched to fresh medium without Tet and treated with a test compound, over a range of concentrations (compound is solubilized in 100% DMSO before dilution in cell culture media, and the final DMSO concentration in the assay was 0.5%), and incubated for a duration of 9 days in a humidified incubator at 37° C. and 5% CO2. Untreated negative control samples (0.5% DMSO only) were included on each plate in multiple wells. On day 9, media was harvested and removed to a fresh plate, and level of HA-HBeAg was determined by CLIA or AlphaLISA. Anti-cccDNA activity of each test compound concentration was calculated as a percentage of HA-HBeAg signal detected in negative control samples versus compound-treated samples, and EC50 value for each compound was defined as the concentration that reduced the HA-HBeAg signal by 50%.

As a reminder, the EC50 is the concentration at which the effect is half-maximal.

`CC(=NOCc1ccc(F)cc1)c1c(C)cc(=O)n(O)c1O` (mixture of isomers) [Compound 6, (E/Z)-5-(1-(((4-fluorobenzyl)oxy)imino)ethyl)-1,6-dihydroxy-4-methylpyridin-2(1H)-one]: the values for the EC50 in experiment [1], in experiment [2] and in experiment [3] were over 25 µM, 5.97 µM and 0.64 µM, respectively.

Take `CC(=NOCc1ccc(C)cc1)c1c(C)cc(=O)n(O)c1O` (mixture of isomers) [Compound 5, (E/Z)-1,6-Dihydroxy-4-methyl-5-(1-(((4-methylbenzyl)oxy)imino)ethyl)pyridin-2(1H)-one]: the values for the EC50 in experiment [1], in experiment [2] and in experiment [3] were over 25 µM, 3.01 µM and 1.57 µM, respectively.

`COc1ccc(CON=C(C)c2c(C)cc(=O)n(O)c2O)cc1` (mixture of isomers) [Compound 7, (E/Z)-1,6-Dihydroxy-5-(1-(((4-methoxybenzyl)oxy)imino)ethyl)-4-methylpyridin-2(1H)-one]: the EC50 in experiment [1] was over 25 µM; in experiment [2] it was 7.11 µM; in experiment [3] it was 0.35 µM.

For the molecule `CC(=NOc1ccc(F)cc1)c1c(C)cc(=O)n(O)c1O` (mixture of isomers) [Compound 3, (E/Z)-5-(1-((4-fluorophenoxy)imino)ethyl)-1,6-dihydroxy-4-methylpyridin-2(1H)-one], the values for the EC50 in experiment [1], in experiment [2] and in experiment [3] were 22.2 µM, 7.41 µM and 1.18 µM, respectively.

As to `COc1ccccc1CON=C(C)c1c(C)cc(=O)n(O)c1O` (mixture of isomers) [Compound 10, (E/Z)-1,6-Dihydroxy-5-(1-(((2-methoxybenzyl)oxy)imino)ethyl)-4-methylpyridin-2(1H)-one], the EC50 in experiment [1] was over 25 µM; in experiment [2] it was 6.53 µM; in experiment [3], 0.98 µM.

Consider `CC(=NOCc1ccccc1N)c1c(C)cc(=O)n(O)c1O` (mixture of isomers) [Compound 8, (E/Z)-5-(1-(((2-Aminobenzyl)oxy)imino)ethyl)-1,6-dihydroxy-4-methylpyridin-2(1H)-one], for which the EC50 was over 25 µM in experiment [1], 11.1 µM in experiment [2] and 2.25 µM in experiment [3].

Take `CC(=NOCc1ccccc1)c1c(C)cc(=O)n(O)c1O` (mixture of isomers) [Compound 4, (E/Z)-5-(1-((Benzyloxy)imino)ethyl)-1,6-dihydroxy-4-methylpyridin-2(1H)-one]: the EC50 in experiment [1] is over 25 µM; in experiment [2] it was 13.3 µM; in experiment [3], 2.24 µM.

With `CC(=NOCc1ccccc1F)c1c(C)cc(=O)n(O)c1O` (mixture of isomers) [Compound 9, (E/Z)-5-(1-(((2-Fluorobenzyl)oxy)imino)ethyl)-1,6-dihydroxy-4-methylpyridin-2(1H)-one], the EC50 in experiment [1] and in experiment [2] was over 25 µM each time.

Take `CC(=NOc1ccccc1)c1c(C)cc(=O)n(O)c1O` (mixture of isomers) [Compound 2, (E/Z)-1,6-Dihydroxy-4-methyl-5-(1-(phenoxyimino)ethyl)pyridin-2(1H)-one]: the values for the EC50 in experiment [1], in experiment [2] and in experiment [3] were 17.1 µM, 4.4 µM and 1.28 µM, respectively.
